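Each compound was tested at five concentrations against cells in 96-well plates for 48 hours. GI50 marks 50% less growth. TGI is the concentration that stops growth completely.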
Experiments:
Assay in all cases: NCI tumour cell line growth inhibition, 48 h
[1] = tested on: MOLT-4 leukemia
[2] = tested on: PC-3 prostate
[3] = tested on: CAKI-1 renal
[4] = tested on: HCT-15 colon
[5] = tested on: M14 melanoma
[6] = tested on: ACHN renal
[7] = tested on: SW-620 colon
[8] = tested on: SF-268 CNS
[9] = tested on: 786-0 renal
[10] = tested on: SK-MEL-2 melanoma

SMILES	GI50 [1] [µM]	TGI [1] [µM]	GI50 [2] [µM]	TGI [2] [µM]	GI50 [3] [µM]	TGI [3] [µM]	GI50 [4] [µM]	TGI [4] [µM]	GI50 [5] [µM]	TGI [5] [µM]	GI50 [6] [µM]	TGI [6] [µM]	GI50 [7] [µM]	TGI [7] [µM]	GI50 [8] [µM]	TGI [8] [µM]	GI50 [9] [µM]	TGI [9] [µM]	TGI [10] [µM]	GI50 [10] [µM]
O=c1c(O)cccc2cc(O)c(O)c(O)c12	16.9	> 100	54.1	> 100	14.3	> 100	39.1	> 100	30.6	> 100	7.82	> 100	20.2	> 100	5.34	> 100	62.1	> 100		
CCCCCCCCCCCCCCCC[N+](C)(CCO)Cc1cnc[nH]1 (stereo unspecified)			0.441	2.37	0.622	4.47	3.03	26.1	0.598	2.22	3.13	19.4	0.978	13.7			0.852	2.84		
CC(=O)[O-].[Mn+3].[O-]c1ccccc1C=NCCN=Cc1ccccc1[O-]	25.7	> 100			> 100	> 100	41.9	> 100	> 100	> 100	> 100	> 100	> 100	> 100	11.1	> 100	> 100	> 100		
O=C(c1ccccc1)c1oc2ccc(Br)cc2c1-c1cnn(-c2ccccc2)c1		> 100				> 100		> 100		> 100		> 100				> 100		> 100	> 100	
O=C(Nc1ccccc1O)c1ccc(CNc2ccnc(C(F)(F)F)c2)cc1	2.38	28.5	2.72	48.4	1.74	14.3	11.8	> 100	3.86	38	2.59	> 100	5.75	23	4.55	26.3	3.36	13.6		
CN(C)CCNC(=O)c1cccc2c(Nc3ccc(S(N)(=O)=O)cc3)c3ccccc3nc12		> 100				13.6		7.07		5.72		5.2		1.96		7.49		4.92	3.69	
Cc1nc(-c2ccccc2)cc2c1c(=O)oc1ccccc12		> 100				> 100		> 100		> 100		> 100		> 100		> 100		> 100	> 100	
CN(CCc1ccccn1)c1nc(=[N+](C)C)ss1		> 100				> 100		> 100		> 100		> 100		> 100		> 100		> 100	> 100	
CC(=O)O[C@H]1CCC2[C@@H]3CCC4=C(O)C(=O)C(C#N)C[C@]4(C)C3CC[C@@]21C (stereo partly specified)		> 100						> 100		> 100		> 100		> 100		> 100		> 100	> 100	
O=C(Cc1nc2ccccc2s1)C(=O)Nc1cccc(Cl)c1						> 100		> 100		> 100		> 100		> 100		> 100		> 100	> 100	
CCOC(=O)C(=O)Nc1ccc(Cl)cc1C		> 100				> 100		> 100		> 100		> 100		> 100		> 100		> 100	> 100	
CC(C)C1CC2C(=O)N(c3ccccc3)C(=O)C2c2[nH]c3ccccc3c21 (stereo unspecified)		> 100				> 100		> 100		> 100		38.3		> 100				> 100	> 100	
COc1ccc(Cc2cc3c(cc2OCC(=O)O)OCO3)cc1		> 100				> 100				> 100		> 100		> 100		> 100		> 100	> 100	
CC1=C(C(=O)NCc2ccccc2)C(c2ccc([N+](=O)[O-])cc2)C(C(=O)NCc2ccccc2)=C(C)N1						> 100		> 100		48.5		89.7		> 100		> 100		> 100	> 100	
O=C1c2ccccc2NC1(c1ccccc1)c1c(-c2ccccc2)[nH]c2ccccc12 (stereo unspecified)		20.6				> 100		> 100		> 100		> 100		> 100				> 100	> 100	
COc1ccc(NC(=O)CC/C(CC(=O)C(C)(C)C)=N\NC(=O)C(N)=O)cc1		> 100				> 100		> 100		> 100		> 100		> 100		> 100		> 100	> 100	
Cc1ccccc1C(=O)Oc1ccc(O)cc1		> 100				> 100		> 100		> 100		> 100		> 100		> 100		> 100	> 100	
COC(=O)CCC(=O)Nc1cc(Cl)ccc1Cl		> 100				> 100		> 100		> 100		> 100		> 100		> 100		> 100	> 100	
O=C(O)/C(Cl)=C(\Cl)C(=O)NC1C2CC3CC(C2)CC1C3 (stereo unspecified)		> 100				> 100		> 100		> 100		> 100		> 100		> 100		> 100		
Cc1cc2cn3c4ccc(O)cc4[nH]c(=O)c3c2cc1C			0.0542	1.7	0.0323	1.5	0.032	1.18			0.0471	1.64	0.0105	1.53			0.0696	1.83	1.97	0.0411
CCN(CC)c1ccc2c(c1)Oc1nc(N)c(C#N)c(N)c1C2Sc1ccc(OC)cc1 (stereo unspecified)	2.37	6.21	1.71	3.38			1.53	3.11	1.77	3.33	1.59	2.94	1.9	3.62	1.85	3.58	1.74	3.22	3.14	1.56

SMILES	GI50 [1] [µM]	TGI [1] [µM]	GI50 [2] [µM]	TGI [2] [µM]	GI50 [3] [µM]	TGI [3] [µM]	GI50 [4] [µM]	TGI [4] [µM]	GI50 [5] [µM]	TGI [5] [µM]	GI50 [6] [µM]	TGI [6] [µM]	GI50 [7] [µM]	TGI [7] [µM]	GI50 [8] [µM]	TGI [8] [µM]	GI50 [9] [µM]	TGI [9] [µM]	TGI [10] [µM]	GI50 [10] [µM]
CC1=C(C(=O)Nc2cc(=O)n(C)c(=O)n2C)C(c2ccc([N+](=O)[O-])cc2)C(C(=O)Nc2cc(=O)n(C)c(=O)n2C)=C(C)N1		> 100						> 100		> 100		> 100		> 100		> 100		> 100	> 100	
CC(=O)C1C(=O)NC(=O)C1=O (stereo unspecified)						> 100		> 100		> 100		> 100		> 100		> 100		> 100	> 100	
COc1cc(O)c2c(c1)C(=O)C=C(Cl)C2=O		> 100				> 100		> 100		> 100		> 100		> 100		> 100		> 100	> 100	
O=C(CC1(O)C(=O)Nc2ccccc21)c1ccco1 (stereo unspecified)		> 100				> 100		> 100		> 100		> 100		> 100		> 100		> 100	> 100	
O=S(=O)(SCc1ccccc1)C(c1ccccc1)c1ccccc1		43.7				93.8		> 100		59.7		> 100		26.9		> 100		> 100	> 100	
Cc1ccc(NC(=O)C(=O)CC(=O)C2CCOC2=O)c(C)c1 (stereo unspecified)						> 100		> 100		> 100		> 100		> 100		> 100		> 100	> 100	
CN(C)c1ncc(-c2ccc(C(F)(F)F)cc2)c(NC2CCCCCC2)n1	14.8	34.7	20.2	87.1	23.1	> 100	17.1	48.8	24	> 100	16	31.2	15	37.3	22.7	96.1	14.8	33.4		
CC(=O)OC1CC2Oc3ccc(C)cc3C(C)(O2)C1=O (stereo unspecified)		> 100						> 100		> 100		> 100		> 100				> 100		
COc1ccc(C(=O)C(c2ccc(OC)cc2)C2OC(=O)C(Cl)=C2Cl)cc1 (stereo unspecified)		> 100				> 100		> 100		> 100		> 100		> 100		> 100		> 100	> 100	
O=C(Nc1cccc(Cc2cccc(NC(=O)c3ccccc3)c2)c1)c1ccccc1		> 100				47.9		> 100		> 100		> 100		> 100		> 100		> 100	> 100	
CC1(C)OB(O)OC1(C)C		> 100				> 100		> 100		> 100		> 100		> 100		> 100		> 100	> 100	
Cc1ccc(C2NC(=O)c3ccccc3N2)s1 (stereo unspecified)		> 100						> 100		> 100		> 100		> 100		> 100		> 100	42	
NC(=O)c1coc(C2OC(CO)C(O)C2O)n1 (stereo unspecified)		> 100						> 100		> 100		> 100		> 100		> 100		> 100	> 100	
O=c1cc(-c2ccccc2)oc2cc(O)cc(O)c12		61.1						64		82.9		33.9				74.8		60.1	39.6	
CN(CC#N)C1CCCC[C@H]1O (stereo partly specified)		> 100				> 100		> 100		> 100		> 100		> 100		> 100		> 100	> 100	
CN1CCN(c2cc(C(=O)Nc3cc4cc(-c5cnn(C)c5)ccc4cn3)ccn2)CC1	0.221	18	0.314	31.4			0.0666	2.46	0.22	13.3	0.0597	0.548	0.0422	11.7	0.2	6.59	0.3	10.4	0.364	0.113
CN(C)CCSc1cccc(-c2cc(-c3cccc(SCCN(C)C)c3)nc(SCCN(C)C)n2)c1		4.66						4.67		2.99		19.4		3.95				20.9	21.1	
C#CCN(N=O)C(=O)NC(CCCNC(=O)OCc1ccccc1)C(=O)OCc1ccccc1 (stereo unspecified)		65.5				47.2		> 100		> 100		> 100		> 100		> 100		> 100	> 100	
O=C(/C=C/C=C/c1c(C2CC2)nc2ccccc2c1-c1ccc(F)cc1)c1cccs1	1	> 100	3.99	> 100			1.06	3.92			1.34	3.86	1.67	11.8	3.35	> 100	2.76	> 100	6.14	1.74
Cc1cc(Nc2c3ccccc3nc3ccccc23)ccc1NS(C)(=O)=O	3.28	9.61			3.36	15.6	4.12	20.5	3.69	14.1	2.96	12.5	3.36	15.9	4.66	19.2	4.73	16.7	10.6	3.42
O/N=C1/C(=C/c2ccc(Oc3ccccc3)cc2)CCCC1C(NO)c1ccc(Oc2ccccc2)cc1 (stereo unspecified)		33.2				88.6		> 100		> 100		> 100		> 100		> 100		> 100	> 100	
